Data on four compounds can be found in US20160031958A1, “METHODS AND COMPOSITIONS USEFUL IN MANIPULATING THE STABILITY OF RE1 SILENCING TRANSCRIPTION FACTOR” (OREGON HEALTH & SCIENCE UNIVERSITY, priority 2014, published 2016).

Where a SMILES comes first, the peptide text is derived from it. The star is where a group is joined. Cbz = O=C(OCc1ccccc1)*

Assay [1] relates to MEK. Description: Native gel / in-gel GFP fluorescence of REST (810-910)-GFP reporter peptide phosphorylation in HEK293T cells. The assay is classed as cell-based, Human. On the procedure: To interrogate this serine residue, HEK293T cells were transfected with the REST (810-910)-GFP peptide with alanine mutations at S856, S861, and/or S864 as indicated. (S856/864A is S856A/S864A with S861 unmutated; S856/861A is S856A/S861A with S864 unmutated; S861/864A is S861A/S864A with S856 unmutated). […]
Gels were treated the same as in FIG. 5C.
To monitor phosphorylation status of specific REST sites under different circumstances, a cDNA reporter construct that expresses a peptide encoding amino acids 810-to-910 of REST (FIG. 3A) was constructed. Mutant REST (810-910) cDNAs encoding alanine mutations at S861, S864 and at an adjacent site, S856 were also constructed. S856 was minimally phosphorylated in the mass spectrometric analysis described above. […] The constructs also comprise regions that encode N-terminal FLAG and C-terminal eGFP tags (FIG. 3A). These constructs were transfected into HEK cells and expressed. Extracts from the cells were resolved on native gels 24 hours after transfection. The expressed peptides were detected by in-gel GFP fluorescence.
The phosphorylation state of the expressed REST peptides can be visualized by differential migration in native gels due to charge differences. The unmutated S861/S864 REST 810-910 peptide (FIG. 3B, lane 1) migrated predominantly as two distinct bands that were not present upon treatment with lambda phosphatase (FIG. 3B, lane 7). […] The identification of the doubly phosphorylated species was based upon the mobility of an unmutated peptide containing unmutated S861/864 (FIG. 3B, lane 2, S856A), which was not present in samples expressing peptides containing S861A or S864A single mutations (lanes 3 and 4, respectively).
Detection of in gel fluorescence on native 10.5%-14% acrylamide gels (Bio-Rad Cat #345-9949) was performed using the Typhoon imaging system by GE Healthcare Life Science.

Assay [2] relates to MEK. Description: Western blot of FLAG-REST protein levels in transfected HEK cells after MEK/ERK inhibitor. The assay is classed as cell-based, Human. The note with it: HEK cells transfected with FLAG-REST cDNA, PD184352 or vehicle for 30 min. The procedure:
To provide further support for this, unmutated REST (810-910) reporter cDNA was transfected into HEK cells and the peptide expressed in the presence and absence of the MEK/ERK inhibitor PD184352. Treatment with PD184352 caused a modest loss from the band at the position representing unmutated S861/S864 peptide and a reciprocal modest increase in the species representing unphosphorylated peptide (FIG. 5C). […] Accordingly, HEK cells transfected with FLAG-REST cDNA were treated with PD184352 for 30 min and the extracts were analyzed by Western blot.
(§1) Whole cell lysates were prepared and immunoprecipitated following the procedures in Ballas N et al, 2001 supra and Nesti E et al, Mol Biol Cell 15, 4073-4088 (2004); incorporated by reference herein. Western blots were performed by standard procedures using antibodies described below and analyzed using anti IgG conjugated to infrared dyes (ThermoFisher) on an Odyssey® infrared fluorescence imager (LiCor). For detecting phosphorylated REST at S861/S864, cell extracts were prepared lacking phosphatase inhibitors. For phosphatase treatment, 75 μg of total protein was treated with 600 U lambda phosphatase (New England Biolabs) or with buffer alone at 30° C. for 1 h, according to the manufacturer's protocol. […] Infrared fluorescence was detected on the Odyssey® imager (LiCor) in the 700 nm channel. […]

In assay [3] the test system is endogenous REST protein. Description: Western blot of endogenous REST protein after transfection of CTDSP1 cDNA into HEK293T cells. The note with it: HEK293T cells transfected with CTDSP1 cDNA. The assay is classed as cell-based, Human. On the procedure: FIG. 6D is an image of a Western blot analysis showing stabilized endogenous REST protein after transfection of CTDSP1 cDNA into HEK293T cells. α-tubulin is the loading control.
Using a REST phospho-specific polyclonal antibody, it was shown that exogenously expressed FLAG-CTDSP1 dephosphorylated these sites in full-length REST (FIG. 6B). Dephosphorylation by CTDSP1 was also observed in the REST reporter peptides as detected by in-gel fluorescence (FIG. 6C).
as §1

Assay [4] concerns endogenous REST protein. Kind of assay: Western blot of endogenous REST protein levels in transfected E12.5 neurospheres. The assay is classed as cell-based. To be noted: E12.5 mouse cortical neurospheres after transfection; MG132 4 h; compared to control peptides. On the procedure:
FIG. 7B is an image of a Western blot showing endogenous REST protein levels in E12.5 neurospheres after transfection. Lane 1, empty vector; lane 2, control (595-694) peptide; lane 3, REST(810-910) S861/864A peptide; lane 4, REST(810-910) WT peptide; lane 5, empty vector with MG132 treated for 4 h. The blot was probed with anti-mouse-REST antibody and anti-tubulin (loading control) antibodies.
There is a significant difference between REST (810-910) compared to control (595-694) peptide (n=5, p=0.0021) and REST(810-910) compared to S861/864A REST(810-910) (n=5, p=0.046). The difference between MG132 and REST(810-910) is not significant (n=5, p=0.7996, Sidak's multiple comparison test, error bars represent 95% confidence interval).
The Examples above used the REST (810-910) reporter as a surrogate substrate for signaling molecules that target S861/S864 on full-length REST. […]
(§2) Whole cell lysates were prepared and immunoprecipitated following the procedures in Ballas N et al, 2001 supra and Nesti E et al, Mol Biol Cell 15, 4073-4088 (2004); incorporated by reference herein. Western blots were performed by standard procedures using antibodies described below and analyzed using anti IgG conjugated to infrared dyes (ThermoFisher) on an Odyssey® infrared fluorescence imager (LiCor). […] Infrared fluorescence was detected on the Odyssey® imager (LiCor) in the 700 nm channel. […]
On the technique in general: Immunoblotting shows a protein as a band on a membrane.

The target of assay [5] is T1, Pin1 (Rattus norvegicus, UniProt A0ABK0LFD7).
T1 construct: endogenous in cells; host or cells: PC12 tet-on FLAG-REST cells
Description: Western blot of FLAG-REST protein levels in PC12 tet-on FLAG-REST cells treated with Pin1 inhibitor. To be noted: PC12 tet-on FLAG-REST cells induced 24 h with doxycycline, PiB or vehicle for 7.5 h. The assay is classed as cell-based. The procedure:
PC12 tet-on FLAG-REST cells were induced 24 h with doxycycline, treated with PiB or vehicle for 7.5 h, and then extracted for analysis. Blots were probed with anti-FLAG (REST) and α-tubulin (loading control).
(§3) HEK293T cells were transfected using Lipofectamine 2000 (Life Technologies) following the manufacturer's instructions. PC12 tet, PC12 tet-on FLAG-REST, and HEK293T cell lines were maintained as described in Ballas N et al 2001 supra. Neurospheres were isolated from E12.5 mouse cortices and cultured as described in Reynolds B A and Weiss S, Science 255, 1707-1710 (1992); incorporated by reference herein in neurobasal media supplemented with 2 mM L-glutamine, 100 U/mL penicillin, […] streptomycin, B27 supplement, 20 ng/mL EGF, and 10 ng/mL FGF-2, all from Life Technologies. Neurospheres were passaged every 3-4 days using Accutase® (Sigma). […]
as §2

Assay [6] has as its target T2, Pin1 (Homo sapiens, UniProt Q13526).
T2 construct: endogenous in cells; host or cells: HEK293T
Kind of assay: Co-immunoprecipitation of GST-βTrCP with FLAG-REST in HEK293T cells after Pin1 inhibition. The assay is classed as cell-based. The note with it: FLAG-REST and GST-βTrCP 48 h, PiB 7.5 h and MG132 4 h. On the procedure:
HEK293T cells were transfected with FLAG-REST (unmutated or S861A/S864A) and GST-βTrCP for 48 h prior to treatment with PiB for 7.5 h and MG132 for 4 h, and then immunoprecipitated. Western blots were probed with anti-FLAG or anti-GST.
as §3, §2

T1 sequence (A0ABK0LFD7 1-162): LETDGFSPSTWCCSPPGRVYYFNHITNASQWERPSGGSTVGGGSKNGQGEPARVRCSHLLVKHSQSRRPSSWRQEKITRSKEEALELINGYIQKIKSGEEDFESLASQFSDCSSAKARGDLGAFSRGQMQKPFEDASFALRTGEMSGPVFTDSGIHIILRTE
T2 sequence (Q13526 whole entry): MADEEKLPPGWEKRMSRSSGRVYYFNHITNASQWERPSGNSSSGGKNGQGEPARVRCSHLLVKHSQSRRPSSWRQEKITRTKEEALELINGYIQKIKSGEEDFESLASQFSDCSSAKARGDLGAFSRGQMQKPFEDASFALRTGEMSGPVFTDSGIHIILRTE

For “EGF: recombinant EGF, upstream activator of ERK”, the “Phosphorylation of S864 in REST (810-910)-GFP peptide (mobility shift)” value in assay [1] (HEK293T, recombinant EGF or vehicle 10 min) is listed as “induces phosphorylation of S864”.

As to `O=C(NOCC1CC1)c1ccc(F)c(F)c1Nc1ccc(I)cc1Cl` [PD184352], the “EGF-induced phosphorylation of S864 in REST (810-910)-GFP peptide” value in assay [1] (HEK293T, PD184352 for 20 min, then recombinant EGF 10 min) is listed as “inhibited”. In addition, in assay [1] (REST (810-910) and GFP cDNA co-transfected into HEK cells, presence and absence of PD184352 (FIG. 10)), the “Bands of doubly phosphorylated and non-phosphorylated REST (810-910) peptide” value is reported as “loss of band representing the doubly phosphorylated peptide”. The “S861/S864 phosphorylation in WT REST peptide” value in assay [1] (transfected HEK293T cells, 10 mM PD184352 for 4 hours) is recorded as “partial loss of S861/S864 phosphorylation”. Besides, the “FLAG-REST protein levels (Western blot)” value in assay [2] is “increased FLAG-REST protein levels”.

Regarding `CC(C)C[C@@H](C=O)NC(=O)[C@H](CC(C)C)NC(=O)[C@H](CC(C)C)NC(=O)OCc1ccccc1` [MG132] (Cbz-Leu-Leu-Leu-aldehyde), in assay [3], the “REST stabilization by CTDSP1, further effect of MG132” value is “not increased further”. Also, the “Endogenous full-length REST protein levels” value in assay [4] is “did not stabilize the Rest protein further”.

On to `CCOC(=O)CN1C(=O)c2ccc3c4c(ccc(c24)C1=O)C(=O)N(CC(=O)OCC)C3=O` [PiB], for which, in assay [5], the “REST protein levels (anti-FLAG Western blot)” value is “higher REST protein levels”. The “βTrCP binding to REST (co-immunoprecipitation)” value in assay [6] is recorded as “diminished βTrCP binding to REST”.
